Test results: EP0723577B1, “DETERGENT COMPOSITIONS CONTAINING SILVER ANTI-TARNISHING AGENTS” (UNILEVER N.V., priority 1993, dated 1995)

Assays:
[1] = Tarnish-monitoring experiments in a dishwasher with varied bleaching agent and mainwash pH, visual evaluation against the Example 1 reference scale; conditions: for reduction of tarnishing: pH 7.5 (peracetic acid 4.12%); for reduction in tarnishing: pH 10.5 (sodium hypochlorite 8.23%)
Description: (§1) Tarnishing-monitoring experiments were conducted, using samples A, B, C, D, E, and F at a product dosage of 40 grams per run in a Bauknecht GSF 3162 dishwasher, with an intake of 5 litres water. The mainwash pH values for compositions A and B were adjusted to 7.5; the mainwash pH values for compositions C and D were adjusted to 8.5. Two experiments (each) were conducted, using compositions E and F; the mainwash pH values were adjusted to 9.0 and 10.5, respectively. Silver-plated spoons, knives, and forks (supplied by Oneida Silversmiths, USA), were used as monitors for all experiments. The monitors were washed in a commercially available hand dishwashing liquid and rinsed with deionized water and acetone before use. At the end of the dishwashing machine program, the monitors were visually evaluated for the presence of colours and/or loss of shine, according to the reference scale described in Example 1.
as §1, with “Tarnish monitoring” for “Tarnishing-monitoring”, “conducted” for “conducted,”, “compositions” for “samples”, “D E” for “D, E,”, “available” for “available hand”
Tarnish monitoring experiments were conducted using compositions A, B, C, D, E and F at a product dosage of 40 grams per run in a Bauknecht GSF 3162 dishwasher, with an intake of 5 litres water. The mainwash pH values for compositions A and B were adjusted to 7.5; the mainwash pH values for compositions C and D were adjusted to 8.5. Two experiments (each) were conducted using compositions E and F; the mainwash pH values were adjusted to 9.0 and 10.5. respectively. Silver-plated spoons, knives and forks (supplied by Oneida Silversmiths, USA), were used as monitors for all experiments. The monitors were washed in a commercially available dishwashing liquid and rinsed with deionized water and acetone before use. At the end of the dishwashing machine program, the monitors were visually evaluated for the presence of colours and/or loss of shine, according to the reference scale described in Example 1.

[2] = physchem; format: physicochemical
Description: As used herein, the term "pKa" means a pH value at which 50% of the heterocyclic ring moieties of the compound (particularly the five-membered rings in the case of the purine class compounds) are in ionic form.
The pH of this solution was adjusted to 3.0 with H2SO4. The solution was then titrated with 1N NaOH to pH 11.0. A plot of mls. NaOH vs. pH for each sample was prepared. The pKa of the compound is that point where the maximum change in pH as a function of mls. NaOH is observed.

[3] = Silver plates held in the compositions for 25 minutes, evaluated for tarnishing; conditions: 4 wt.% epsilon-phthalimido peroxyhexanoic acid
Description: (§2) A comparison of anti-tarnishing performance of purine class compounds within the scope of the invention and azole compounds outside the invention was conducted. The selected compounds were incorporated in an amount of 1 wt.% in a machine dishwashing composition containing 4 wt.% epsilon-phthalimido peroxyhexanoic acid as the bleaching agent. The pH values of the compositions were adjusted by the addition of a 50% solution of sodium hydroxide or concentrated sulfuric acid, as necessary.
(§3) Copper plates and silver plates were held in each of the compositions for 25 minutes, removed, rinsed with deionized water and evaluated for tarnishing. […]
as §2, with “1,3-N azole” for “purine class”
as §3

[4] = Tarnish-monitoring experiments in a dishwasher, monitors visually ranked 0 to 6 against the Example 1 reference scale
Description: The wash program consisted of a pre-wash at 40°C, a mainwash at 55°C, two intermediate rinses, and a final rinse at 65°C.
The mainwash pH with these compositions was typically 8.7. Silver-plated spoons (2 per run) were the monitors used in the test. The spoons were supplied by Oneida Silversmiths, USA. The monitors were washed in a commercially available hand dishwash liquid and rinsed with deionized water and acetone before use. In the dishwasher the monitors were kept apart from each other in the cutlery basket. At the end of a single-run machine program, the monitors were visually analyzed for the presence of colours and the loss of gloss.
This ranking of spoons was used as a reference scale for all subsequent Examples.

[5] = Example 11: 1,2,4-triazole 1.0%

Compound: c1nc[nH]n1 [1,2,4-triazole]
- reduction of tarnishing [1, 5]: 1.5 units of tarnishing
- reduction in tarnishing [1, 5]: 3.0 units
- level of tarnishing relative to the case where no anti-tarnishing agent was present ([1]; Example 11: 1,2,4-triazole 1.0%, peracetic acid, epsilon-phthalimidoperoxyhexanoic acid or sodium hypochlorite, pH 7.5 to 10.5): reduced the level of tarnishing
- pKa of compounds ([2]; deionized water): 5.4
- Effective Silver Anti-Tarnishing ([3]; Example 13: 1 wt.% compound, pH of composition 8.8): Yes (A tarnish score of 3 or less was considered effective as a silver anti-tarnishing compound)
- level at which optimum performance was achieved ([4]; Example 12): 1 % by weight
- silver tarnishing, in words ([4]; Example 12, at amounts of 0.05 % by weight): effectively reduced silver tarnishing

Compound: c1ncc2[nH]cnc2n1 [Purine]
- level of tarnishing relative to the samples which did not contain purine ([1]; Example 4: purine 1.0%, peracetic acid pH 7.5, epsilon-phthalimidoperoxy hexanoic acid pH 8.5, sodium hypochlorite pH 9.0 and 10.5): greatest at pH values of 7.5, 8.5 and 9.0
- pKa [2]: 5.5
- Effective Silver Anti-Tarnishing ([3]; Example 5: 1 wt.% compound, pH of composition 8.6): Yes (A tarnish score of 3 or less was considered effective as a silver anti-tarnishing compound)

Compound: O=c1[nH]c(=O)[nH]c(=O)[nH]1 [cyanuric acid, 1,3,5-triazine-2,4,6(1H,3H,5H)-trione]
- reduction of tarnishing ([1]; Example 8: cyanuric acid 1.0%): 1.5 units of tarnishing
- reduction in tarnishing ([1]; Example 8: cyanuric acid 1.0%): 3.0 units
- level of tarnishing relative to the case where no anti-tarnish agent was present ([1]; Example 8: cyanuric acid 1.0%, peracetic acid, epsilon-phthalimidoperoxyhexanoic acid or sodium hypochlorite, pH 7.5 to 10.5): reduced the level of tarnishing
- level which gives optimum anti-tarnish performance ([4]; Example 9): about 1%
- appearance of the monitors ([4]; Example 9, cyanuric acid at a 2.5% level): slightly yellow appearance
